Test results published in ChEMBL document CHEMBL1152941, “Isocoumarin glucosides from the scale insect fungus Torrubiella tenuis BCC 12732” (J Nat Prod, 2009).
Values after ≈ are worked out from the molar mass of the structure shown. Active and inactive are the calls of the source. No cut-off for these calls is given here.

Legend:
KB = test: Cytotoxicity against human KB cells by resazurin microplate assay; format: functional, cell-based
NCI-H187 = test: Cytotoxicity against human NCI-H187 cells by resazurin microplate assay; format: functional, cell-based
MCF7 = test: Cytotoxicity against human MCF7 cells by resazurin microplate assay; format: functional, cell-based
Human alphaherpesvirus 1 = test: Antiviral activity against HSV1 by green fluorescent protein microplate assay; format: functional, organism-based
[1] = tested on: Mycobacterium tuberculosis; test: Antitubercular activity against Mycobacterium tuberculosis H37Ra by green fluorescent protein microplate assay; format: functional
Plasmodium falciparum = test: Antimalarial activity against Plasmodium falciparum K1 by microculture radioisotope technique; format: functional, organism-based
Vero = test: Cytotoxicity against african green monkey Vero cells by green fluorescent protein microplate assay; format: cell-based; settings: Chlorocebus sabaeus
[2] = Human alphaherpesvirus 1, read-out: IC50

COc1cccc2c1C(=O)c1c(O)c3c(c(O)c1C2=O)C[C@@](O)(C(=O)CO)C[C@@H]3O[C@H]1C[C@H](N)[C@H](O)[C@H](C)O1 [DOXORUBICIN]
IC50 (KB): 0.144 µg/mL (≈ 0.265 µM)
IC50 (NCI-H187): 0.058 µg/mL (≈ 0.107 µM)
IC50 (MCF7): 0.899 µg/mL (≈ 1.65 µM)

O=c1oc(CO)cc2cc(O)cc(O)c12
IC50 (Human alphaherpesvirus 1; [2]): 50 µg/mL (≈ 240 µM)
Activity (NCI-H187): inactive
MIC [1]: 25 µg/mL (≈ 120 µM)

CO[C@H]1[C@H](O)[C@@H](O)[C@H](Oc2cc(O)c3c(=O)oc(C)cc3c2)O[C@@H]1CO
IC50 (Human alphaherpesvirus 1): Not Active
Activity (KB): inactive
Activity (Plasmodium falciparum): inactive
Activity (NCI-H187): inactive
MIC [1]: inactive

Cc1c2ccncc2c(C)c2c1[nH]c1ccccc12 [ELLIPTECINE]
IC50 (Vero): 1.16 µg/mL (≈ 4.71 µM)

Cc1cc2cc(O)cc(O)c2c(=O)o1
IC50 (Human alphaherpesvirus 1): Not Active
Activity (KB): inactive
Activity (Plasmodium falciparum): inactive
Activity (NCI-H187): inactive
MIC [1]: inactive

NNC(=O)c1ccncc1 [ISONIAZID]
MIC [1]: 0.023 µg/mL (≈ 0.168 µM)

CO[C@H]1[C@H](O)[C@@H](O)[C@H](OCc2cc3cc(O)cc(O)c3c(=O)o2)O[C@@H]1CO
IC50 (Human alphaherpesvirus 1): Not Active
Activity (KB): inactive
Activity (Plasmodium falciparum): inactive
Activity (NCI-H187): inactive
MIC [1]: inactive

Nc1nc2c(ncn2COCCO)c(=O)[nH]1 [ACYCLOVIR]
IC50 (Human alphaherpesvirus 1; [2]): 6.86 µg/mL (≈ 30.5 µM)

CO[C@H]1[C@H](O)[C@@H](O)[C@H](Oc2cc(O)c3c(=O)oc(CO)cc3c2)O[C@@H]1CO
IC50 (Human alphaherpesvirus 1): Not Active
Activity (KB): inactive
Activity (Plasmodium falciparum): inactive
Activity (NCI-H187): inactive
MIC [1]: inactive
Activity (MCF7): inactive

C[C@H]1[C@@H](O)O[C@@H]2O[C@@]3(C)CC[C@H]4[C@H](C)CC[C@@H]1[C@@]24OO3 [ARTENIMOL]
IC50 (Plasmodium falciparum): 0.0011 µg/mL (≈ 0.00387 µM)
